Consider six compounds from ChEMBL document CHEMBL4706667, “Click synthesis of 1,2,3-triazole based imidazoles: Antitubercular evaluation, molecular docking and HSA binding studies” (Bioorg Med Chem Lett, 2021).

≈ marks a conversion by molar mass, not a printed value.

The test system of series [1] is Mycobacterium tuberculosis. Description: Antitubercular activity against Mycobacterium tuberculosis H37Rv assessed as bacterial growth inhibition incubated for 28 days by agar dilution method. The conditions noted are these: 672 h, time 28 day. Type of series: functional. On the technique in general: In agar dilution, organisms are placed on agar that contains the substance at set levels.

Another series deals with Vero. Description: Cytotoxicity against African green monkey Vero cells assessed as reduction in cell viability measured after 72 hrs by MTT assay. Format: cell-based. Conditions: Chlorocebus sabaeus; call rule not given here.
The target in series [2] is T1, Albumin (Homo sapiens, UniProt P02768). Description: Binding affinity to human serum albumin assessed as Stem-Volmer quenching constant. Conditions: isolated protein. Type of series: ADME.
Series [3] addresses T1, Albumin. Description: Binding affinity to human serum albumin assessed as quenching constant. Format: ADME. Conditions: isolated protein.
Series [4] has as its target T1, Albumin. Description: Binding affinity to human serum albumin assessed as binding constant. Format: ADME. The conditions noted are these: isolated protein.
Series [5] deals with T1, Albumin. Description: Binding affinity to human serum albumin assessed as quenching of intrinsic fluorescence at 2.5 to 15 uM and 298 K by fluorescence spectroscopy. Format: ADME. Conditions: isolated protein, dose 2.5-15 µM.
The target in series [6] is T1, Albumin. In words: Binding affinity to human serum albumin at protein to compound molar ratio of 1:1 by fluorescence spectroscopy. Type of series: ADME. The conditions noted are these: isolated protein.
For series [7], the target named is T1, Albumin. In words: Binding affinity to human serum albumin assessed as critical distance with 50% energy transfer between protein and compound by FRET assay. Conditions: isolated protein. Format: ADME.
The target of series [8] is T1, Albumin. Description: Binding affinity to human serum albumin assessed as distance between the acceptor and donor by FRET assay. Type of series: ADME. Conditions: isolated protein.

T1 sequence (P02768 whole entry): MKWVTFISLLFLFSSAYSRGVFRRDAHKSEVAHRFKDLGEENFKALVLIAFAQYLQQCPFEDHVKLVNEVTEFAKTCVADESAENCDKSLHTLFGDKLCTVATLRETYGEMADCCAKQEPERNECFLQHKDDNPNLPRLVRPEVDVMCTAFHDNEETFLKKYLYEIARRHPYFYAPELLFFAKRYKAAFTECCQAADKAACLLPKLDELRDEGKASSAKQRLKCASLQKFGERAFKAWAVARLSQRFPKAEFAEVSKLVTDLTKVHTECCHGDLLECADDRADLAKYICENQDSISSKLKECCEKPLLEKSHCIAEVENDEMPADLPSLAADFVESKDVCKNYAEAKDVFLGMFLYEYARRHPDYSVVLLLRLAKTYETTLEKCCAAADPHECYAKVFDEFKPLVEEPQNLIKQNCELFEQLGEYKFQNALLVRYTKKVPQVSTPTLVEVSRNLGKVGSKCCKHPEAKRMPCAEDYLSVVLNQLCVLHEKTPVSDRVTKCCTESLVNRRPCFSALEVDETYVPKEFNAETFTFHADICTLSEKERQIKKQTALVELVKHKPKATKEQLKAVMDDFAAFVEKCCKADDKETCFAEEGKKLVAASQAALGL

The MIC is the lowest concentration found to suppress growth. Broadly, the IC50 is the midpoint of a concentration-inhibition curve. Turning to `NC(=O)c1ccc(-n2cc(CNC(=O)c3c[nH]c(-c4ccccc4)n3)nn2)cc1`, the MIC in series [1] turned out to be 1.47 µM (≈ 0.569 µg/mL). The half-maximal inhibitory concentration (IC50) in the series with Vero came out at 198 µM. Also, the KSV on Albumin [2] was 5.02 10^4L/mol. In addition, the Kq on Albumin [3] is given as 8.36 10^12L/mol/s. Moreover, the Kb at Albumin [4] is on record as 2.58 10^3L/mol. Further, the Activity result at Albumin [5] is reported as “Active”; on Albumin [6], “Active”; on Albumin [7], 1.49 nm; on Albumin [8], 2.09 nm.

Turning to `COc1ccc(-n2cc(CNC(=O)c3c[nH]c(-c4ccccc4)n3)nn2)cc1`, in series [1], the minimum inhibitory concentration (MIC) was found to be 10.6 µM (≈ 3.98 µg/mL). Moreover, in the series with Vero, the 50% inhibitory concentration (IC50) was 388 µM.

For `O=C(NCc1cn(-c2ccc(O)cc2)nn1)c1c[nH]c(-c2ccccc2)n1`, the MIC in series [1] was found to be 5.19 µM (≈ 1.87 µg/mL). Further, the concentration for half-maximal inhibition (IC50) in the series with Vero came out at 281 µM.

As for `Nc1ccc(-n2cc(CNC(=O)c3c[nH]c(-c4ccccc4)n3)nn2)cc1`, the MIC in series [1] came out at 2.03 µM (≈ 0.73 µg/mL). Further, in the series with Vero, the half-inhibitory concentration (IC50) amounted to 237 µM. In addition, on Albumin [2], the KSV is given as 4.38 10^4L/mol. In addition, at Albumin [3], the Kq is listed as 8.11 10^12L/mol/s. The Kb on Albumin [4] is recorded as 2.16 10^3L/mol. Also, the Activity entry on Albumin [5] was “Active”; at Albumin [6], “Active”; at Albumin [7] it was 1.81 nm; at Albumin [8], 2.36 nm.

In the case of `Cc1ccc(-n2cc(CNC(=O)c3c[nH]c(-c4ccccc4)n3)nn2)cc1`, the MIC in [1] came out at 19.5 µM (≈ 6.97 µg/mL). For the same compound, in the series with Vero, the IC50 was found to be 409 µM.

On to `NNC(=O)c1ccncc1` [ISONIAZID], for which the MIC in series [1] was 0.36 µM (≈ 0.0494 µg/mL). Besides, the concentration for half-maximal inhibition (IC50) in the series on Vero was more than 456 µM.
